Assay: RP, Agilent ZORBAX Eclipse Plus C18, 150 × 2.1 mm, 3.5 µm, 40 °C, 0.3 mL/min, estimated dead time 1.1 min; A: water + 0.1% formic acid; B: acetonitrile + 0.1% formic acid; gradient (min/%B) 0/2 1/2 2/20 16.5/98 22/98
Details: stereoisomer not certain

In order of falling LC retention time:
1. CCC1(C2OC(C3OC(O)(CO)C(C)CC3C)CC2C)CCC(C2(C)CCC3(CC(O)C(C)C(C(C)C(OC)C(C)C(=O)O)O3)O2)O1 (centres undefined)  20.4 min
2. CCCCCCCCCCCCCCCC[N+](C)(C)CCCCCCCCCCCCCCCC  18.4 min
3. CCCCCCOC(=O)c1ccccc1C(=O)OCCCCCC  18.1 min
4. CCCCCCCC[N+](CCCCCCCC)(CCCCCCCC)CCCCCCCC  16.2 min
5. Cc1ccc(OP(=O)(Oc2ccc(C)cc2)Oc2ccc(C)cc2)cc1  15.9 min
6. C#CCC1=C(C)C(OC(=O)C2C(C=C(C)C)C2(C)C)CC1=O (centres undefined)  14.9 min
7. CCCCCCCCCCCCCCCC(=O)OCC(O)COP(=O)([O-])OCC[N+](C)(C)C (centres undefined)  14.9 min
8. Cc1cc(C)c(C(=O)P(=O)(c2ccccc2)c2ccccc2)c(C)c1  14.1 min
9. O=C(NC1CCCCC1)N(Cc1ccccc1)Cc1ccccc1  14.1 min
10. CCCCCCCCCCCCCCCCCC[N+](C)(C)C  14 min
11. COc1ccc(C(=O)c2ccccc2)c(O)c1  13.5 min
12. CCCCCCCCCC[N+](C)(C)CCCCCCCCCC  13.4 min
13. CC12CCC3c4ccc(OCc5ccccc5)cc4CCC3C1CC(O)C2O (centres undefined)  13.3 min
14. c1ccc2c(c1)Nc1ccccc1S2  13.1 min
15. CCCCCCCCCCCCCCCC[N+](C)(C)C  12.8 min
16. CCCCCCCCCCCCOCC[N+](C)(C)Cc1ccccc1  12.7 min
17. N#CSCSc1nc2ccccc2s1  12.4 min
18. CCOC(=O)C1=C(C)NC(C)=C(C(=O)OC)C1c1cccc([N+](=O)[O-])c1 (centres undefined)  12.4 min
19. COc1ccccc1Oc1c(NS(=O)(=O)c2ccc(C(C)(C)C)cc2)nc(-c2ncccn2)nc1OCCO  12.1 min
20. C#CC1(O)CCC2C3CCC4=CC(=O)CCC4C3CCC21CC (centres undefined)  12.1 min
21. CCCCCCCCCCCC[N+](C)(C)CCOc1ccccc1  12 min
22. CCNC(=O)C1CC(C)CCC1C(C)C (centres undefined)  11.8 min
23. O=P(Cc1ccccc1)(Cc1ccccc1)Cc1ccccc1  11.6 min
24. C#CC1(O)CCC2C3CCC4=C(CCC(=O)C4)C3CCC21C (centres undefined)  11.1 min
25. Cc1ccc(C(=O)c2cc(O)c(O)c([N+](=O)[O-])c2)cc1  11.1 min
26. O=c1cc(-c2ccccc2)oc2cc(O)cc(O)c12  11 min
27. COC(=O)C(=Cc1ccc(OC)cc1)C(=O)OC  11 min
28. O=C(Nc1ccccc1)Nc1ccccc1  10.8 min
29. CCOC(=O)c1ccc(O)c([N+](=O)[O-])c1  10.7 min
30. CC12CCC3c4ccc(O)cc4CCC3C1CCC2O (centres undefined)  10.4 min
31. CCOc1cc(CC(=O)NC(CC(C)C)c2ccccc2N2CCCCC2)ccc1C(=O)O (centres undefined)  10.3 min
32. CC(C)C(=O)c1ccc(C(C)C(=O)O)cc1 (centres undefined)  10.2 min
33. CNC(=O)Oc1cccc2ccccc12  10.1 min
34. CC12CCC3c4cc(O)c(O)cc4CCC3C1CCC2=O (centres undefined)  9.98 min
35. CCOCCOC(=O)Nc1ccc(C)c(NC(=O)OCCOCC)c1  9.91 min
36. c1ccc(COCCC[P+](c2ccccc2)(c2ccccc2)c2ccccc2)cc1  9.73 min
37. O=C1CC2(CCCCC2)CO1  9.65 min
38. CCCC[P+](CCCC)(CCCC)CCCC  9.65 min
39. CC(Cc1ccc(C(C)(C)C)cc1)CN1CC(C)OC(C)C1 (centres undefined)  9.53 min
40. NC(=O)N1c2ccccc2CCc2ccccc21  9.23 min
41. O=C(C[P+](c1ccccc1)(c1ccccc1)c1ccccc1)OCc1ccccc1  9.2 min
42. CC(C)CC(C)Nc1ccc(Nc2ccccc2)cc1 (centres undefined)  9.19 min
43. O=C1CC(c2ccc(O)cc2)Oc2cc(O)cc(O)c21 (centres undefined)  9.18 min
44. CCCC[N+](CCCC)(CCCC)Cc1ccccc1  9.13 min
45. O=P(O)(OCc1ccccc1)OCc1ccccc1  9.05 min
46. CC(C)=CC[P+](c1ccccc1)(c1ccccc1)c1ccccc1  9.02 min
47. NC(=O)N1c2ccccc2C=Cc2ccccc21  8.87 min
48. CCC1OC(=O)C(C)C(OC2CC(C)(OC)C(O)C(C)O2)C(C)C(OC2OC(C)CC(N(C)C)C2O)C(C)(OC)CC(C)C(=O)C(C)C(O)C1(C)O (centres undefined)  8.86 min
49. CC(C)(C)OC(=O)C[P+](c1ccccc1)(c1ccccc1)c1ccccc1  8.83 min
50. O=C(O)c1cccc2c(=O)c3ccccc3[nH]c12  8.82 min
51. COc1ccc(CCN(C)CCCC(C#N)(c2ccc(OC)c(OC)c2)C(C)C)cc1OC (centres undefined)  8.54 min
52. CC(Cc1ccc(C(C)C(=O)O)cc1)C(=O)O (centres undefined)  8.48 min
53. CNC(=O)ON=CC(C)(C)SC  8.4 min
54. CC12CCC(=O)C=C1CCC1C2C(=O)CC2(C)C1CCC2(O)C(=O)CO (centres undefined)  8.4 min
55. CC(C)(c1ccc(OCC(O)CO)cc1)c1ccc(OCC(O)CO)cc1 (centres undefined)  8.23 min
56. CCC1OC(=O)CC(O)C(C)C(OC2OC(C)C(OC3CC(C)(O)C(O)C(C)O3)C(N(C)C)C2O)C(CC=O)CC(C)C(=O)C=CC(C)=CC1COC1OC(C)C(O)C(OC)C1OC (centres undefined)  8.18 min
57. C=C1CC23CCC4C(C)(C(=O)OC5OC(CO)C(O)C(O)C5O)CCCC4(C)C2CCC1(OC1OC(CO)C(O)C(O)C1OC1OC(CO)C(O)C(O)C1O)C3 (centres undefined)  8.07 min
58. COC(=O)c1cccc(O)c1  7.88 min
59. COc1nc(NC(C)C)nc(NC(C)C)n1  7.39 min
60. CC(=O)C[P+](c1ccccc1)(c1ccccc1)c1ccccc1  7.28 min
61. COc1ccc(C(C[N+](C)(C)[O-])C2(O)CCCCC2)cc1 (centres undefined)  7.25 min
62. C[N+](C)(CCOc1ccccc1)Cc1ccccc1  7.14 min
63. CC(=O)c1ccc(C(=O)O)cc1  7.1 min
64. COCC(C)N(C(=O)CS(=O)(=O)O)c1c(C)csc1C (centres undefined)  7.04 min
65. COc1ccc(O)cc1  6.96 min
66. CCN1CCN(C(=O)NC(C(=O)NC2C(=O)N3C(C(=O)O)=C(CSc4nnnn4C)CSC23)c2ccc(O)cc2)C(=O)C1=O (centres undefined)  6.86 min
67. CC(O)C(=O)N(C)c1ccccc1 (centres undefined)  6.76 min
68. CCN(CC)C(=O)Nc1ccc(OCC(O)CNC(C)(C)C)c(C(C)=O)c1 (centres undefined)  6.53 min
69. CC1c2cccc(O)c2C(O)=C2C(=O)C3(O)C(O)=C(C(N)=O)C(=O)C(N(C)C)C3C(O)C21 (centres undefined)  6.5 min
70. O=S(=O)(O)c1nc2ccccc2s1  6.5 min
71. COc1ccc2nc(S(=O)Cc3ncc(C)c(OC)c3C)[nH]c2c1 (centres undefined)  6.46 min
72. CNCC(c1ccc(OC)cc1)C1(O)CCCCC1 (centres undefined)  6.44 min
73. CCC1OC(=O)C(C)C(OC2CC(C)(OC)C(O)C(C)O2)C(C)C(OC2OC(C)CC(N(C)C)C2O)C(C)(O)CC(C)CN(C)C(C)C(O)C1(C)O (centres undefined)  6.25 min
74. COc1ccc2nc(SCc3[nH]cc(C)c(=O)c3C)[nH]c2c1  6.17 min
75. CCNc1nc(NC(C)(C)C)[nH]c(=O)n1  5.98 min
76. CN(C)[P+](On1nnc2ccccc21)(N(C)C)N(C)C  5.97 min
77. Cc1cn(C2CC(N=[N+]=[N-])C(CO)O2)c(=O)[nH]c1=O (centres undefined)  5.9 min
78. COc1cc(C(=O)c2cnc(N)nc2N)cc(OC)c1OC  5.86 min
79. CC1(C)CC(O)CC(C)(C)N1O  5.7 min
80. NC(Cc1ccc(Oc2ccc(O)cc2)cc1)C(=O)O (centres undefined)  5.62 min
81. CCN1CCCC1CNC(=O)c1cc(S(=O)(=O)CC)c(N)cc1OC (centres undefined)  5.57 min
82. Cn1c(=O)c2c(ncn2C)n(C)c1=O  5.51 min
83. CN1CCN2c3ncccc3Cc3ccccc3C2C1 (centres undefined)  5.46 min
84. COc1ccc2c3c1OC1C(=O)C=CC4(O)C(C2)N(C)CCC314 (centres undefined)  5.37 min
85. O=C1NS(=O)(=O)c2ccccc21  5.2 min
86. c1cncc(-c2nc3ccccc3[nH]2)c1  5.16 min
87. COC(=O)Nc1nc2ccccc2[nH]1  5.08 min
88. CN1C(=O)NC(=O)C1(C)C  5.06 min
89. O=S(=O)(O)c1ccc2nc(-c3ccccc3)[nH]c2c1  5.04 min
90. COc1ccc(Cc2cnc(N)nc2N)cc1OC  4.97 min
91. NCC1(CC(=O)O)CCCCC1  4.88 min
92. CC1(C)CCCC(C)(C)N1  4.82 min
93. Cc1ncc([N+](=O)[O-])n1CCO  4.81 min
94. NCC(O)COc1ccccc1 (centres undefined)  4.75 min
95. C=C(C)C([O-])=NCCC[N+](C)(C)C  4.7 min
96. CC(C)(C)P(=O)(O)O  4.63 min
97. CN(C)c1nc2c(ncn2C2OC(CO)C(O)C2O)c(=O)[nH]1 (centres undefined)  4.57 min
98. O=c1[nH]c(=O)c2ncn(C3OC(CO)C(O)C3O)c2[nH]1 (centres undefined)  4.35 min
99. CCCC[N+]1(C)CCCC1  4.27 min
100. CN(C)c1cccc(O)c1  4.07 min
101. CC1(C)NC(=O)NC1=O  3.47 min
102. Cc1c[nH]c(=O)[nH]c1=O  3.23 min
103. O=c1[nH]cnc2[nH]ncc12  3.15 min
104. Nc1ccn(C2CSC(CO)O2)c(=O)n1 (centres undefined)  3.1 min
105. CNC(=C[N+](=O)[O-])NCCS(=O)Cc1ccc(CN(C)C)o1 (centres undefined)  2.94 min
106. C[N+](C)(C)c1ccccc1  2.83 min
107. CC1(C)CC(=O)CC(C)(C)N1  2.82 min
108. CC(Cn1cnc2c(N)ncnc21)OCP(=O)(O)O (centres undefined)  2.77 min
109. c1ncc2[nH]cnc2n1  2.57 min
110. Cn1cnc2c(=O)[nH]c(N)nc21  2.43 min
111. Cn1cnc2c(=O)[nH]c(=O)[nH]c21  2.38 min
112. CC[N+](CC)(CC)CC  2.28 min
113. Cc1ccc(N)cc1N  2.14 min
114. Nc1ncnc2c1ncn2CCOCP(=O)(O)O  2.12 min

Source: the RepoRT retention time repository (doi:10.1016/j.chroma.2015.11.014)
